This note sets out measurements from patent US5190929A, “Cyclophosphamide analogs useful as anti-tumor agents” (Research Corporation Technologies, Inc., priority 1988, dated 1993).

Structures are written as SMILES.

For series [1], the system named is L1210 murine leukemia cells, cyclophosphamide-resistant (/CP). Kind of series: In vitro soft agar colony-forming cytotoxicity assay, cyclophosphamide-resistant L1210 cells. In kind it is cell-based, mouse. Also on record: LC99: unit not given here. The text has this: (§1) A soft agar colony-forming assay according to the procedure of Chu and Fischer, Biochem. Pharmacol., 17, 753-767 (1968) was used and modified where necessary. Cultured mouse L1210 and P388 sensitive cells were purchased from EG&G Mason Research Institute, Tumor Bank, Worchester, Mass. Cultured cyclophosphamide resistant L1210 and P388 cells were obtained from Dr. Robert Struck of Southern Research Institute, Birmingham, Ala. Typically, the desired cells (2-3×10^6 cells/ml) in exponential growth and suspended in 6.5 ml of Fischer's medium (Gibco Lab., Grand Island, N.Y.) were divided into six groups (1 control and 5 treated groups) containing an equal number of cells in 1 ml. These cells were then treated with varying doses of drug (solution of perhydrooxazine in media or 20% ethanol-water), diluted with media to give a total volume of 10 ml, and incubated for one hour at 37° C. The cells were washed three times with 3 ml of supplemented Fischer's medium (containing 10% horse serum) by centrifuge (800×g), removal of media by suction, and resuspension of the pellet in media (5 ml). A 1-ml portion was used to determine the cell count with a Coulter counter. From the remainder, a 5-ml suspension of cells was prepared at a density of 10^5 cells/ml, and between 10^2 and 10^5 cells were placed on soft agar and incubated at 37° C. Colonies were counted after 10 days. The log of the surviving fraction was plotted vs. drug concentration and from this plot the LC99 was obtained. (By definition, the LC99 value represents the concentration of drug necessary to effect a 99% cell kill.)

A further series concerns L1210 tumor cells. Kind of series: In vivo antitumor activity, survival of L1210 bearing mice. Details: species or system mouse (male B6 D2 F1). The following applies: Mus musculus, L1210, ip, i.p., read-out: Survival of L1210 bearing mice - % T/C × 100. Here is the method:
(§2) Typically 4 groups of 10 male B6 D2 F1 mice (Jackson Breeding Lab., Bar Harbor Me) were injected i.p. with 1×10^5 L1210 tumor cells. Twenty four hours after injection three groups were treated (i.p. injection) with varying doses of drug, and the fourth group received the vehicle alone. The mice were observed daily and death dates were recorded. The experiment was terminated on day 30 and median survival time (days) and % T/C (ratio of median survival time of treated group divided by the […] survival time of the control group) was calculated. The drug was delivered using either an isotonic saline solution or a carboxymethyl cellulose suspension depending on the solubility of the drug.

For series [2], the system named is P388 murine leukemia cells, cyclophosphamide-resistant (/CP). Description: In vitro soft agar colony-forming cytotoxicity assay, cyclophosphamide-resistant P388 cells. In kind it is cell-based, mouse. Details: LC99: unit not given here.
Text: as §1

The test system of series [3] is L1210 murine leukemia cells, cyclophosphamide-sensitive (/0). Kind of series: In vitro soft agar colony-forming cytotoxicity assay, cyclophosphamide-sensitive L1210 cells. Details: unit not given here. In kind it is cell-based, mouse. The following applies: L1210 /0 (sensitive); 1-hour exposure, 99% cell kill.
Text: as §1

In series [4] the test system is P388 murine leukemia cells, cyclophosphamide-sensitive (/0). Kind of series: In vitro soft agar colony-forming cytotoxicity assay, cyclophosphamide-sensitive P388 cells. The following applies: P388 /0 (sensitive); 1-hour exposure, 99% cell kill. Also on record: unit not given here. Type of series: cell-based, mouse.
Text: as §1

A further series concerns CP-resistant L1210 cells. Kind of series: In vivo antitumor activity, survival of mice bearing CP-resistant L1210 cells. The following applies: for Survival of L1210 bearing mice - % T/C × 100: CP-resistant L1210, i.p. Also on record: species or system mouse (male B6 D2 F1). Here is the method:
as §2

On to `O=P1(N(CCCl)CCCl)NC(OO)CCO1` (centres unmarked) [Ref, reference compound], for which the LC99 in series [1] (L1210 /CP (cyclophosphamide-resistant), 1-hour exposure, 99% cell kill) was determined as 141; in series [2] (P388 /CP (cyclophosphamide-resistant), 1-hour exposure, 99% cell kill) it was 60; in series [3], 8; in series [4], 6. Also, the “RF, resistance factor = ratio of LC99 in resistant/sensitive cells” value in series [1] (L1210, 60 min) was 17; in series [2] (P388, 60 min), 10. For the same compound, the response vs control in vivo at 17 µmol/kg in the series on L1210 tumor cells (17 umol/kg) worked out at 136%. Besides, in the series on L1210 tumor cells (34 umol/kg), the response vs control in vivo at 34 µmol/kg came to 194%. Also, the response vs control in vivo at 51 µmol/kg in the series on L1210 tumor cells (51 umol/kg) amounted to 50%. The “toxicity” value in the series with CP-resistant L1210 cells (51 umol/kg dose, mice bearing cyclophosphamide resistant L1210) is recorded as “toxicity is apparent at the 51 umol/kg dose”. Moreover, the results for the “Survival of L1210 bearing mice - % T/C × 100” value in the series with CP-resistant L1210 cells (17 umol/kg), in the series on CP-resistant L1210 cells (34 umol/kg) and in the series with CP-resistant L1210 cells (51 umol/kg) were 112%, 100% and 75%, respectively. The “survival / lifespan of mice bearing cyclophosphamide resistant L1210 leukemia” value in the series on CP-resistant L1210 cells (cyclophosphamide resistant L1210 leukemia) is given as “no significant increase in lifespan is observed”.
